Measured values published in patent US11691974B2, “3,9-diazaspiro[5,5]undecane compound as FLT3 and AXL inhibitors” (MEDSHINE DISCOVERY INC., priority 2018, dated 2023).

How the values were obtained:
[1] = In vivo pharmacokinetic study in rats; conditions: male, SD, rat, plasma
Method: SD male rats aged 7 to 10 weeks were selected. The doses for intravenous and oral administration were 1 mg/kg and 2.5 mg/kg, respectively. The rats were fasted for at least 12 hours before the administration, and resumed feeding 4 hours after the administration. The rats had free access to water throughout the assay period.
On the day of the assay, the animals in the intravenous group were administrated the corresponding compound through a single injection in the tail vein at an administration volume of 5 mL/kg; the oral group were administrated the corresponding compound through a single intragastric gavage at an administration volume of 10 mL/kg. The animals were weighed before administration, and the administration volume was calculated based on the body weight. The time for collecting samples was: 0.083 (the injection group), 0.25, 0.5, 1, 2, 4, 6, 8, 24 h. About 200 μL of whole blood was collected from the jugular vein at each time point to prepare plasma for concentration determination by high-performance liquid chromatography-tandem mass spectrometry (LC-MS/MS). All animals were euthanized by CO2 anesthesia after collecting the PK samples at the last time point. The plasma concentrations were processed by non-compartmental model of WinNonlin™ Version 6.3 (Pharsight, Mountain View, Calif.) pharmacokinetic software, and the pharmacokinetic parameters were calculated by the linear logarithm trapezoidal method.

FLT3(K663Q) = target: T1, FLT3(K663Q) (Homo sapiens, UniProt P36888, K663Q); assay: KINOMEscan Kd determination, FLT3 mutant; assay type: binding; conditions: ratio of Kd versus compound B
T1 sequence (P36888 27-993 K663Q): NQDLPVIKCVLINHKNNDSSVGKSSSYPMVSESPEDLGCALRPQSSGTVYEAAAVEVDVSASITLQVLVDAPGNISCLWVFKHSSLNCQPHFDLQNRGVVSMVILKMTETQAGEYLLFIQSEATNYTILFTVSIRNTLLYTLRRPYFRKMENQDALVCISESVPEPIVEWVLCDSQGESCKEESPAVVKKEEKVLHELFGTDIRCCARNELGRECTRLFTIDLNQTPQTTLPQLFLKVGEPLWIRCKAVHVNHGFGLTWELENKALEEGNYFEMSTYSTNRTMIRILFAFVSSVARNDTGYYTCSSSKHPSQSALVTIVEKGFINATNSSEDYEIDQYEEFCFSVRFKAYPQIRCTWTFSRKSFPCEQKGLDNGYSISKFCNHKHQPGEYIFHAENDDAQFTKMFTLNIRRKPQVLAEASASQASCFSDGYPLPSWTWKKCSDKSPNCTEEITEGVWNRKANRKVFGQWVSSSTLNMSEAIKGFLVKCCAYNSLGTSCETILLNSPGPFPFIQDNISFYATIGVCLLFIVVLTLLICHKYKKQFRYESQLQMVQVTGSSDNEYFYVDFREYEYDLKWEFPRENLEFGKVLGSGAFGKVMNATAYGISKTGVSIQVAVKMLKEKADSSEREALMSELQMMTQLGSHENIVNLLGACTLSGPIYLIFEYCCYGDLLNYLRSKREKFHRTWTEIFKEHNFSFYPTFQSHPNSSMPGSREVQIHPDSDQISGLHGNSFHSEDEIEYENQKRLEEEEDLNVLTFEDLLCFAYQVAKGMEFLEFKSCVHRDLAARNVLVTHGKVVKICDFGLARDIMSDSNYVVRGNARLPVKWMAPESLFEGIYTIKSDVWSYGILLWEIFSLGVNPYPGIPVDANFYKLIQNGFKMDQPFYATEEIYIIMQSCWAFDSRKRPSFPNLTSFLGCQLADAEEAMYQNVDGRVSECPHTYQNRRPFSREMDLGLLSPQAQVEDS
Method: (§1) The assay was carried out using KINOMEscan™ technology. The assay compounds were stored in 100% DMSO. The assay was carried out by means of 3-fold dilution and 11-point fitting. All compounds used for Kd determination were dispersed by ultrasound, then directly diluted and tested. All reactions were carried out in a 384-well polypropylene plate. Each portion has a final volume of 0.02 ml. The plate was incubated with shaking at room temperature for 1 hour, and then processed. The kinase concentration in the eluent was finally determined by qPCR method. Kd was obtained by fitting.

FLT3(ITD, F691L) = target: T2, FLT3(ITD, F691L) (Homo sapiens, UniProt P36888, F691L, form not given); assay: KINOMEscan Kd determination, FLT3 mutant; assay type: binding; conditions: ratio of Kd versus compound B
T2 sequence (P36888 1-993 F691L): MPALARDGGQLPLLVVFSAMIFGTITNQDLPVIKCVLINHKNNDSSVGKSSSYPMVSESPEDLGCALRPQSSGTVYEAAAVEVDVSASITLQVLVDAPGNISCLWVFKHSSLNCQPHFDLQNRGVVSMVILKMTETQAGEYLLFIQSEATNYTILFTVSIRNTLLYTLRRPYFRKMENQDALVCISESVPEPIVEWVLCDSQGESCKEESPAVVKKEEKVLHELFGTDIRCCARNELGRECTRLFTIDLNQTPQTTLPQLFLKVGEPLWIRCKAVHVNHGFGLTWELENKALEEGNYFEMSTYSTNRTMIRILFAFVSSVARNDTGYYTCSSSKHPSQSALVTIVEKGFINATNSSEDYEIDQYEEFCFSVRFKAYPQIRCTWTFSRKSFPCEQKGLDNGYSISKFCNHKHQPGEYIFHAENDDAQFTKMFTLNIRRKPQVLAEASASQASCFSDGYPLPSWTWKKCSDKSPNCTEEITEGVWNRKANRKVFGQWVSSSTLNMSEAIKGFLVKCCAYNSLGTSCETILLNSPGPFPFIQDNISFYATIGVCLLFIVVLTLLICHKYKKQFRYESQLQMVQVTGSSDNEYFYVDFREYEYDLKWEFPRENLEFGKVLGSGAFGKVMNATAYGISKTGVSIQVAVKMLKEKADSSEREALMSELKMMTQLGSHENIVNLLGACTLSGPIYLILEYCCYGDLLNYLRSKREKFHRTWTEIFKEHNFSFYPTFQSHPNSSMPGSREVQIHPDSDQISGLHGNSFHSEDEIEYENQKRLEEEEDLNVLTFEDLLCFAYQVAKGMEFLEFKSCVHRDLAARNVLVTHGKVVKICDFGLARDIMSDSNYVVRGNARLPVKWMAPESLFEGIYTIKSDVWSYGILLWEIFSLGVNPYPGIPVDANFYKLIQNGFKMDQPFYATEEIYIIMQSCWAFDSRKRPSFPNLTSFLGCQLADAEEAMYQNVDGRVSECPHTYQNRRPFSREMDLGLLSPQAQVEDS
Method: as §1

AUC(0-t) ([1]; iv, injection 1 mg/kg): 0.457 µM·h | clearance ([1]; iv, injection 1 mg/kg): 61.2 mL/min/kg | half-life ([1]; iv, injection 1 mg/kg): 2.99 h | Vd ([1]; iv, injection 1 mg/kg, read-out: Vdss): 13.3 L/kg | AUC(0-t) ([1]; oral administration 2.5 mg/kg): 0.51 µM·h | bioavailability ([1]; oral administration 2.5 mg/kg): 44.7% | activity for FLT3 (K663Q) higher than that of compound B (FLT3(K663Q)): 5.9 times | activity for FLT3 (ITD, F691L) higher than that of compound B (FLT3(ITD, F691L)): 3.6 times
SMILES: CCc1nc(C(N)=O)c(Nc2ccc(N3CCC4(CCN(C)CC4)CC3)c(C)c2)nc1NC1CCOCC1
